From patent US20240269299A1, “POLYETHYLENE GLYCOL-DRUG CONJUGATE AND USE THEREOF” (CHONGQING UPGRA BIOTECHNOLOGY CO. LTD., priority 2021, published 2024)

Tested on: choroidal neovascularization (CNV)
Assay: Laser modeling of choroidal neovascularization (CNV) in mice
Type: in vivo, C57BL/6J suckling mice
Settings: 1 μL injected into vitreous space one week after photocoagulation
Experimental: Experimental animals: C57BL/6J suckling mice, where the mice were all female and subjected to laser modeling three days after birth.
A mixed solution of 20% V/V PEG300, 20% V/V anhydrous ethanol and 60% V/V normal saline was used as a solvent for compound 39-205 to prepare a 20 mg/mL solution for use in mice No. 6 and No. 7, respectively. A saline solution of aflibercept was used as a positive control for mouse No. 5.
After the mice were anesthetized, a semiconductor laser was used to perform retinal photocoagulation around optic discs under a retinoscope. An irradiation site was between blood vessels that were one optic disc diameter away from the optic disc. The generation of bubbles after photocoagulation was an indicator of breaking Bruch's membrane. The laser modeling conditions for mice No. 6 and No. 7 were 350 mw and 200 ms, and the laser modeling conditions for mouse No. 5 were 300 mw, 260 ms, and the photocoagulation time was 1 s. One week after photocoagulation, medication treatments started for the mice. The administration method was: 1 μL of each of the 20 mg/mL solution of compound 39-205 prepared above and a normal saline solution of aflibercept was injected into vitreous space.

## aflibercept
Compound 39-205 as 20 mg/mL solution, aflibercept in normal saline, FIG. 1 to FIG. 4
  area of the laser spot after administration: did not significantly reduce
Mouse No. 5, FIG. 1
  fundus angiography after administration: not significantly improved
